Source: ChEMBL document CHEMBL4715844, “Structure-based virtual screening and biological evaluation of novel non-bisphosphonate farnesyl pyrophosphate synthase inhibitors” (Eur J Med Chem, 2020)

Experiments:
[1] = biological target: T1, Farnesyl pyrophosphate synthase (Rattus norvegicus, UniProt P05369); assay: Binding affinity to rat FPPS expressed in Escherichia coli BL21 (DE3) by isothermal titration calorimetry
T1 sequence (P05369 whole entry): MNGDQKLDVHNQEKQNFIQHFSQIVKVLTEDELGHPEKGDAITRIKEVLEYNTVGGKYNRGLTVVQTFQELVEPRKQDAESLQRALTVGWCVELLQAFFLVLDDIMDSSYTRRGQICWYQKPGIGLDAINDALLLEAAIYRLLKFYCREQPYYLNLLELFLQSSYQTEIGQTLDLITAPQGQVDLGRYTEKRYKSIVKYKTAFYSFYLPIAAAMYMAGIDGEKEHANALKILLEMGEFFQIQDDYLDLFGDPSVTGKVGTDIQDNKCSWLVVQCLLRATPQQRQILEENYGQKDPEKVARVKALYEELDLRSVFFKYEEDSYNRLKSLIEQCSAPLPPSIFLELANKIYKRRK

[2] = biological target: T2, Farnesyl pyrophosphate synthase (Rattus norvegicus) (UniProt P05369); assay: Inhibition of rat FPPS expressed in Escherichia coli BL21 (DE3) using GPP and IPP as substrate at 10 uM incubated for 10 mins by microplate reader
T2 sequence (whole entry): T1 sequence (P05369 whole entry)

Row | Structure (SMILES) | Kd [1] [µM] | inhibition [2] [%]
1 | O=C(CC1(O)C(=O)Nc2ccccc21)CC1(O)C(=O)Nc2ccccc21 (stereo not given) | 181 | 13
2 | O=c1oc2cc(O[C@@H]3O[C@H](CO)[C@@H](O)[C@H](O)[C@H]3O)ccc2c2ccccc12 | 106 | 11.5
3 | Cc1c(O[C@@H]2O[C@H](CO)[C@@H](O)[C@H](O)[C@H]2O)ccc2c3c(c(=O)oc12)CCCCC3 | 53.8 | 17.3
4 | O=Cc1ccc(O[C@@H]2O[C@H](CO)[C@@H](O)[C@H](O)[C@H]2O)cc1 | 328 | 29.3
5 | CCC(C)c1ccc(O[C@@H]2O[C@H](CO)[C@@H](O)[C@H](O)[C@H]2NC(C)=O)cc1 (stereo not given in full) | 499 | 25.3
